Reference: paper doi:10.1101/2024.02.23.581731v1 (biorxiv, 2024)
Changes are numbered by the printed parent chain. pIC50: −log10 of the molar value.

Key:
Assay in all cases: FLIPR Blue membrane potential assay, inhibition of 5-HT response
Assay type in all cases: cell-based
h5-HT3AR [1] = molecular target: T1, h5-HT3AR (Homo sapiens, UniProt P46098, M204I)
T1 sequence (P46098 24-478 M204I): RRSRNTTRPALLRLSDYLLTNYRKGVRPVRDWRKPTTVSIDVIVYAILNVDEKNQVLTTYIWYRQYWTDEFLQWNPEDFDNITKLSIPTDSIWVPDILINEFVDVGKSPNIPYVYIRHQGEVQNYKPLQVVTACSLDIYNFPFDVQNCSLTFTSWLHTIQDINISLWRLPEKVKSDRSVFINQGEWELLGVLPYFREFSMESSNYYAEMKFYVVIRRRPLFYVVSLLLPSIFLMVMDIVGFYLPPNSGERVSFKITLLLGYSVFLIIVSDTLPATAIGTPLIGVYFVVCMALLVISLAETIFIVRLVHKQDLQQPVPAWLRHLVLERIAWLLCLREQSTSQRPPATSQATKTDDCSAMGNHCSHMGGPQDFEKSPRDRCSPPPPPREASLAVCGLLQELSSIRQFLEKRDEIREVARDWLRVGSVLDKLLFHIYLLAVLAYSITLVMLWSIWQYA

h5-HT3AR [2] = molecular target: T2, h5-HT3AR (Homo sapiens, UniProt P46098, M223I)
T2 sequence (P46098 24-478 M223I): T1 sequence (P46098 24-478 M204I) with I181M, M200I

gp5-HT3AR = molecular target: T3, gp5-HT3AR (Cavia porcellus, UniProt O70212)
T3 sequence (O70212 20-490): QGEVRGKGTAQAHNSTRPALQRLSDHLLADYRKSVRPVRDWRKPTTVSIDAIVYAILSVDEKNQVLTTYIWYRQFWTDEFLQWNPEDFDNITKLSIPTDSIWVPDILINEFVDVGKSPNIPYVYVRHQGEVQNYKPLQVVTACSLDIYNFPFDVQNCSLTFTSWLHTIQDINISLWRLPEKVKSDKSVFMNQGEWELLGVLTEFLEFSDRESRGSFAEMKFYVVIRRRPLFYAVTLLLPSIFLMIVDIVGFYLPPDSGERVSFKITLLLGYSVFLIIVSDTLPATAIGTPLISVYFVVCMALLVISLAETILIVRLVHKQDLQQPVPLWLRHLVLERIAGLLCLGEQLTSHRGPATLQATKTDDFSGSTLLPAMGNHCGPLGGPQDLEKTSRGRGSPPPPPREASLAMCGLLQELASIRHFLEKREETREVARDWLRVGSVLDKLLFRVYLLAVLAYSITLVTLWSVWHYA

h5-HT3AR [3] = molecular target: T4, h5-HT3AR (Homo sapiens, UniProt P46098, Y228S)
T4 sequence (P46098 24-478 Y228S): T1 sequence (P46098 24-478 M204I) with I181M, Y205S

h5-HT3AR [4] = molecular target: T5, h5-HT3AR (Homo sapiens, UniProt P46098)
T5 sequence (P46098 24-478): T1 sequence (P46098 24-478 M204I) with I181M

h5-HT3AR [5] = molecular target: T6, h5-HT3AR (Homo sapiens, UniProt P46098, V202I)
T6 sequence (P46098 24-478 V202I): T1 sequence (P46098 24-478 M204I) with V179I, I181M

Compound Cc1ccc(Sc2ccccc2N2CCNCC2)c(C)c1 [vortioxetine] has a pIC50 (h5-HT3AR [1]) of 7.14, a pIC50 (h5-HT3AR [2]) of 7.70 and a pIC50 (gp5-HT3AR) of 5.63. For the same compound, the pIC50 (h5-HT3AR [3]) was 7.08, the pIC50 (h5-HT3AR [4]) was 7.70 and the pIC50 (h5-HT3AR [5]) was 7.43.
